These results are taken from ChEMBL document CHEMBL4699466, “Isolation, reactivity, pharmacological activities and total synthesis of hispanolone and structurally related diterpenes from Labiatae plants” (Bioorg Med Chem Lett, 2020).

One test relates to RAW264.7. In words: Antiinflammatory activity against mouse RAW264.7 cells assessed as inhibition of LPS-induced nitrite accumulation at 10 uM preincubated for 30 mins followed by LPS-stimulation and measured after 24 hrs by Griess reagent based assay relative to control. It is filed as functional. More on the design: scale not given: the % may be the effect or the level left. To be noted: time 24.5 hrs.

A short description of test [1]: Metal chelating activity of the compound assessed as Fe2+-compound complex formation at 0.250 mg/ml incubated for 10 mins in presence of ferrozine solution relative to control. To be noted: dose 0.25 mg/ml.
Test [2] can be described thus: Metal chelating activity of the compound assessed as Fe2+-compound complex formation at 0.500 mg/ml incubated for 10 mins in presence of ferrozine solution relative to control. The settings on record: dose 0.5 mg/ml.
The nature of test [3]: Metal chelating activity of the compound assessed as Fe2+-compound complex formation at 1 mg/ml incubated for 10 mins in presence of ferrozine solution relative to control.
In test [4] the target is 11-beta-hydroxysteroid dehydrogenase 1 (Homo sapiens) (UniProt P28845). Kind of test: Inhibition of human 11beta-HSD1 expressed in HEK-293 cells assessed as residual activity at […] using radiolabeled cortisone as substrate by scintillation counting. It is filed as cell-based. To be noted: HEK293.
11-beta-hydroxysteroid dehydrogenase 1 (Homo sapiens), sequence (P28845 whole entry, looked up): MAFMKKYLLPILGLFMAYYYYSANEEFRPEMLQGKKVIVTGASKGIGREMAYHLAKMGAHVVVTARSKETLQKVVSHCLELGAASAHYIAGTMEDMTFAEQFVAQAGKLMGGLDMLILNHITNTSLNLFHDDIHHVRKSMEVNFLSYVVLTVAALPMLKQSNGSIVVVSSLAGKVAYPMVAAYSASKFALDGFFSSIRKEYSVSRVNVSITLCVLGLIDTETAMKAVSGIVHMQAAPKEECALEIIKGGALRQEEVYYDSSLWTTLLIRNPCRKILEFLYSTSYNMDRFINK
For a further test, the species on record is Mus musculus. Kind of test: cells. The settings on record: Swiss-Taconi.
In a further test the target is T1, Acetylcholinesterase (Rattus norvegicus, UniProt P37136).
T1 sequence (P37136 whole entry): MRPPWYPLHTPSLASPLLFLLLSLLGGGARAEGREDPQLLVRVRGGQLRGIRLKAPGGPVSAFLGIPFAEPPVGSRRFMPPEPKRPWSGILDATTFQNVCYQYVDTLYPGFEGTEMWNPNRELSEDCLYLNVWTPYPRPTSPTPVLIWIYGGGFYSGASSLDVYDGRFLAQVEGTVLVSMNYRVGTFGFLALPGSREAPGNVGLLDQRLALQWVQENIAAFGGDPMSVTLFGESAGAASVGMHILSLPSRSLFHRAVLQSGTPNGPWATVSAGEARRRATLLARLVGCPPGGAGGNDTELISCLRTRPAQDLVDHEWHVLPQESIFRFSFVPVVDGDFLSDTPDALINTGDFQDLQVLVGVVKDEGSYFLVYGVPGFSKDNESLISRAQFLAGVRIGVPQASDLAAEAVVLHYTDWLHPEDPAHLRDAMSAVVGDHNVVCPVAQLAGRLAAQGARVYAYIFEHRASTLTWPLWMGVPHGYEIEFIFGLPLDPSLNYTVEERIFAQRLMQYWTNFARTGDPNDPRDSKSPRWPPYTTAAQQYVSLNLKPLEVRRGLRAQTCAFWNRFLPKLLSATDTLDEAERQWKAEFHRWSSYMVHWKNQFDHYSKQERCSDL
Kind of test: Inhibition of Sprague-Dawley rat acetylcholinesterase using acetylthiocholine iodide as substrate measured at 30 secs for 5 mins by Ellman's method.

The next test has as its target T2, Sulfotransferase 1E1 (Homo sapiens, UniProt P49888).
T2 sequence (P49888 whole entry): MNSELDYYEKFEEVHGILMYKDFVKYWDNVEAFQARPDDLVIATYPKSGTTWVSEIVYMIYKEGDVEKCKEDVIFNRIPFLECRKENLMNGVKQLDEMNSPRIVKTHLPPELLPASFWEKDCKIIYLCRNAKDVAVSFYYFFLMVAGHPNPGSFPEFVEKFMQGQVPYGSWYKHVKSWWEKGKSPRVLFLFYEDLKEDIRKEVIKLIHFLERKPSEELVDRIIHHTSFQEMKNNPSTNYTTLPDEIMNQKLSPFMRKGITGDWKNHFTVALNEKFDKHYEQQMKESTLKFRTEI
Kind of test: Inhibition of estrogen sulfotransferase in human liver cytosol incubated for 30 mins in presence of [3H]-estradiol and adenosine -3'-phosphate 5'-phosphosulfate by liquid scintillation counting method. It is filed as subcellular.

Test [5] concerns Neutrophil. In words: Antiinflammatory activity in human neutrophils assessed as inhibition of fMLF/cytochalasin B-induced superoxide anion generation at 10 uM relative to control. More on the design: scale not given: the % may be the effect or the level left. It is filed as functional.
The subject of test [6] is Neutrophil. Kind of test: Antiinflammatory activity in human neutrophils assessed as inhibition of fMLF/cytochalasin B-induced superoxide anion generation. It is filed as functional, cell-based.
The test system of test [7] is Neutrophil. In words: Antiinflammatory activity in human neutrophils assessed as inhibition of elastase release at 10 uM relative to control. More on the design: scale not given: the % may be the effect or the level left. It is filed as functional.
Test [8] has as its system Neutrophil. Kind of test: Antiinflammatory activity in human neutrophils assessed as inhibition of elastase release. It is filed as functional, cell-based.
Test [9] in a line: Antagonist activity at PAF receptor in rabbit platelet membrane assessed as inhibition of [3H]-PAF binding to PAF receptor. It is filed as cell membranes, Oryctolagus cuniculus, Cell membrane.

Description for Mus musculus: Antiinflammatory activity in Swiss-Taconi mouse assessed as reduction in TPA-induced ear edema

`CCC1=C(Cc2ccoc2)C(=O)[C@@]2(C)CCCC(C)(C)[C@@H]2C1`: the Activity in the test with RAW264.7 was 35.53%.
Same read-out and setting: the same measure for `CC1=C(CCC2=CC(=O)OC2O)[C@@]2(C)CCCC(C)(C)[C@@H]2CC1=O` (some centres undefined): 84.1%.
`C[C@@H]1C(=O)C[C@H]2C(C)(C)CCC[C@]2(C)[C@@]1(O)CCc1ccoc1`: the Activity in test [1] is 96%; in test [2] it was 97%; in test [3] it was 97.3%; in test [4], 20%. Further, the IC50 in the test filed under Mus musculus was found to be 1.05 µM.
In the case of `CC1=C(CCc2ccoc2)[C@@]2(C)CCCC(C)(C)[C@@H]2CC1=O`, the IC50 against Acetylcholinesterase is 38.5 µM; at Sulfotransferase 1E1, 19.8 µM; in the test on Neutrophil [6], 8.48 µM; in the test with Neutrophil [8], 5.42 µM. Moreover, the Activity amounted to 58.43% with Neutrophil [5] and 70.06% in the test with Neutrophil [7].
Take `C[C@@H]1C(=O)C[C@H]2C(C)(C)CCC[C@]2(C)[C@@]12CC[C@]1(C=COC1)O2`: the IC50 in test [9] came out at 4 µM.
